What was measured:
Homo sapiens [1] = organism: Homo sapiens; test: Inhibition of cIAP BIR3 domain (unknown origin) at 495 uM relative to control
Cathepsin K = target: T1, Cathepsin K (Homo sapiens, UniProt P43235); test: Inhibition of Cathepsin K (unknown origin)
T1 sequence (P43235 whole entry): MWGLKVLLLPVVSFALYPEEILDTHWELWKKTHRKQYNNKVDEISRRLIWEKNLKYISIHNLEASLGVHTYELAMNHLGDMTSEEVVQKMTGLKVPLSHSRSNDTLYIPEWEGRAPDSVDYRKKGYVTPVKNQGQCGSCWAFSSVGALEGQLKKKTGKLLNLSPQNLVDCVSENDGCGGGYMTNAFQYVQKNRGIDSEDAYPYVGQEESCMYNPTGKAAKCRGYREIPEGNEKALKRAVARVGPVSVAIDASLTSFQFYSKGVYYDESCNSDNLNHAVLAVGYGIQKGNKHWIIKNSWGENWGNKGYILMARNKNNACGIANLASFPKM

Cathepsin S = Cathepsin S (Homo sapiens, UniProt P25774); test: Inhibition of Cathepsin S (unknown origin)
Sequence of Cathepsin S (P25774 whole entry): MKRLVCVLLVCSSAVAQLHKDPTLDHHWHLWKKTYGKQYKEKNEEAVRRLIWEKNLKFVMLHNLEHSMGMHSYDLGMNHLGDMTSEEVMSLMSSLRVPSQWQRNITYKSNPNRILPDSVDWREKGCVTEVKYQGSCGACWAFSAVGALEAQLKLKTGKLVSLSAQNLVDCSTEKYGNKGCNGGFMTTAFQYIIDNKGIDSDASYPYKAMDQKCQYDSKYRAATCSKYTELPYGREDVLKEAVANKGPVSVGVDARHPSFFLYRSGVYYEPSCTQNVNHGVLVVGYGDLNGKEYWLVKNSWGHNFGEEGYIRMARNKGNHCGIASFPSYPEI

Procathepsin L = Procathepsin L (Homo sapiens, UniProt P07711); test: Inhibition of human Cathepsin L
Sequence of Procathepsin L (P07711 whole entry, the tested form may be a part): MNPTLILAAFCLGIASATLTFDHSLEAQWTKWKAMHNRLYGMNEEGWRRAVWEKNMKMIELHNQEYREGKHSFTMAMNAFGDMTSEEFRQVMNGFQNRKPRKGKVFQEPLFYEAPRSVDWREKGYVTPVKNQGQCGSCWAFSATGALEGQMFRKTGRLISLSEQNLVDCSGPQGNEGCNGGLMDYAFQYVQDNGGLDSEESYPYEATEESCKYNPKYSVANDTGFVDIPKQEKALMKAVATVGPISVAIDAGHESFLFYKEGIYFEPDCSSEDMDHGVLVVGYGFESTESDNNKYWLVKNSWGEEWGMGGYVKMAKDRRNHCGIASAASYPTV

Homo sapiens [2] = organism: Homo sapiens; test: Inhibition of cIAP BIR3 domain (unknown origin) at 1000 uM relative to control

inhibition (Homo sapiens [1]) | IC50 (Cathepsin K) | IC50 (Cathepsin S) | IC50 (Procathepsin L) | inhibition (Homo sapiens [2]) | SMILES
42% |  |  |  |  | C[C@@H]1CN(CC(=O)N2CCc3ccccc32)CCN1
 | 11000 nM |  |  |  | COc1ccc(S(=O)(=O)[C@@H]2C[C@@H](C(=O)NC3(C#N)CC3)N(C(=O)C3(c4ccc(Cl)cn4)CC3)C2)c(Cl)c1
 | 2000 nM | 1 nM | 5 nM |  | N#CC1(NC(=O)[C@@H]2C[C@@H](S(=O)(=O)c3ccccc3Cl)CN2C(=O)C2(c3ncc(Br)cc3F)CNC2)CC1
 |  |  |  | 8% | C[C@@H]1CN(CC(=O)N2CCc3ccc(N)cc32)CCN1
 | 6500 nM | 1.4 nM | 36 nM |  | COc1ccc(S(=O)(=O)[C@@H]2C[C@@H](C(=O)NC3(C#N)CC3)N(C(=O)C3(c4ccc(Cl)cn4)CNC3)C2)c(Cl)c1
